# Measurements published in PMC12621019, “Restructuring Antiviral Quinazolinone Frameworks to Derive and Optimize Inhibitors of Chikungunya Virus” (ACS Medicinal Chemistry Letters, 2025).
# Assays:
# [1] = Cytotoxicity assay (CellTiter Glo) in NHDF cells; settings: human, CC50, NHDF cells, maximum 40 μM
# [2] = tested on: CHIKV (strain 181/25mKate); experiment: microbe, parasite or virus in culture; assay type: cell-based; settings: Chikungunya virus, NHDF, 72 h, read-out: titer redn, log
SMILES,CC50 at 72 h [1] [µM],log reduction at 10 µM [2]
COc1c(F)cc(-n2c(-c3ccccn3)nc3cc(N4CCN(C(C)C)CC4)c(Cl)cc3c2=O)cc1F [1ac],> 40,0
COc1c(F)cc(-n2c(-c3cccnc3)nc3cc(N4CCN(C(C)C)CC4)c(Cl)cc3c2=O)cc1F [1ad],> 40,0
COc1c(F)cc(-n2c(C3CCNCC3)nc3cc(N4CCN(C(C)C)CC4)c(Cl)cc3c2=O)cc1F [1i],29.1,0.95
COc1c(F)cc(-n2c([C@H]3CCCN3)nc3cc(N4CCN(C)CC4)c(F)cc3c2=O)cc1F [(R)-1a],> 40,0.1
COc1c(F)cc(-n2c([C@@H]3CCCN(c4ccccc4)C3)nc3cc(N4CCN(C(C)C)CC4)c(Cl)cc3c2=O)cc1F [(R)-1aa],> 40,0
COc1c(F)cc(-n2c([C@@H]3CCCNC3)nc3ccc(Cl)cc3c2=O)cc1F [(R)-1ab],> 40,0
COc1c(F)cc(-n2c([C@H]3CCCN3)nc3cc(N4CCN(C(C)C)CC4)c(F)cc3c2=O)cc1F [(R)-1b],> 40,1.3
COc1c(F)cc(-n2c([C@H]3CCCN3)nc3cc(N4CCN(C)CC4)c(Cl)cc3c2=O)cc1F [(R)-1c],> 40,0.5
COc1c(F)cc(-n2c([C@H]3CCCN3)nc3cc(N4CCN(C(C)C)CC4)c(Cl)cc3c2=O)cc1F [(R)-1d],19,2.3
COc1c(F)cc(-n2c([C@H]3CCCN3)nc3cc(N4CCNCC4)c(Cl)cc3c2=O)cc1F [(R)-1e],24.9,2.1
COc1c(F)cc(-n2c([C@H]3CCN3)nc3cc(N4CCN(C(C)C)CC4)c(Cl)cc3c2=O)cc1F [(R)-1f],> 40,0.1
COc1c(F)cc(-n2c([C@@H]3CCCNC3)nc3cc(N4CCN(C(C)C)CC4)c(Cl)cc3c2=O)cc1F [(R)-1g],16.2,2.3
COc1c(F)cc(-n2c([C@@H]3CCCNC3)nc3cc(N4CCN(C(C)(C)C)CC4)c(Cl)cc3c2=O)cc1F [(R)-1j],17.1,1.1
COc1c(F)cc(-n2c([C@@H]3CCCNC3)nc3cc(N4CCN(c5ccccc5)CC4)c(Cl)cc3c2=O)cc1F [(R)-1k],11.3,> 4
COc1c(F)cc(-n2c([C@@H]3CCCNC3)nc3cc(N4CCN(C5CCN(C)CC5)CC4)c(Cl)cc3c2=O)cc1F [(R)-1l],11.6,2.8
COc1c(F)cc(-n2c([C@@H]3CCCNC3)nc3cc(N4CCN(C)CC4)c(Cl)cc3c2=O)cc1F [(R)-1m],23.3,2.2
COc1c(F)cc(-n2c([C@@H]3CCCNC3)nc3cc(N4CCNCC4)c(Cl)cc3c2=O)cc1F [(R)-1n],16.5,0.7
COc1c(F)cc(-n2c([C@@H]3CCCNC3)nc3cc(N4CCC(N5CCOCC5)CC4)c(Cl)cc3c2=O)cc1F [(R)-1o],20.6,1.1
COc1c(F)cc(-n2c([C@@H]3CCCNC3)nc3cc(N4CCC(N5CCN(C)CC5)CC4)c(Cl)cc3c2=O)cc1F [(R)-1p],13.1,2.5
COc1c(F)cc(-n2c([C@@H]3CCCNC3)nc3cc(N(C)CCN(C)C)c(Cl)cc3c2=O)cc1F [(R)-1q],26.6,0.6
CC(C)N1CCN(c2cc3nc([C@@H]4CCCNC4)n(C)c(=O)c3cc2Cl)CC1 [(R)-1r],> 40,0.5
CC(C)N1CCN(c2cc3nc([C@@H]4CCCNC4)n(-c4ccccc4)c(=O)c3cc2Cl)CC1 [(R)-1s],> 40,0.9
COc1ccc(-n2c([C@@H]3CCCNC3)nc3cc(N4CCN(C(C)C)CC4)c(Cl)cc3c2=O)cc1 [(R)-1t],29.3,1.4
CC(C)N1CCN(c2cc3nc([C@@H]4CCCNC4)n(-c4ccc(F)cc4)c(=O)c3cc2Cl)CC1 [(R)-1u],23.8,2.1
CC(C)N1CCN(c2cc3nc([C@@H]4CCCNC4)n(-c4ccc(Cl)cc4)c(=O)c3cc2Cl)CC1 [(R)-1v],14.2,3.4
CC(C)N1CCN(c2cc3nc([C@@H]4CCCNC4)n(-c4cccc(Cl)c4)c(=O)c3cc2Cl)CC1 [(R)-1w],18,2.7

SMILES,CC50 at 72 h [1] [µM],log reduction at 10 µM [2]
CC(C)N1CCN(c2cc3nc([C@H]4CCCCN4)n(-c4ccc(Cl)cc4)c(=O)c3cc2Cl)CC1 [(R)-1x],12,5.2
COc1c(F)cc(-n2c([C@@H]3CCCN(C)C3)nc3cc(N4CCN(C(C)C)CC4)c(Cl)cc3c2=O)cc1F [(R)-1y],23.6,1.3
COc1c(F)cc(-n2c([C@H]3CCCCN3C)nc3cc(N4CCN(C(C)C)CC4)c(Cl)cc3c2=O)cc1F [(R)-1z],> 40,0.4
COc1c(F)cc(-n2c([C@@H]3CCCN3)nc3cc(N4CCN(C)CC4)c(F)cc3c2=O)cc1F [(S)-1a],> 40,0.3
COc1c(F)cc(-n2c([C@@H]3CCCN3)nc3cc(N4CCN(C(C)C)CC4)c(F)cc3c2=O)cc1F [(S)-1b],> 40,0.64
COc1c(F)cc(-n2c([C@@H]3CCCN3)nc3cc(N4CCN(C)CC4)c(Cl)cc3c2=O)cc1F [(S)-1c],> 40,1
COc1c(F)cc(-n2c([C@@H]3CCCN3)nc3cc(N4CCN(C(C)C)CC4)c(Cl)cc3c2=O)cc1F [(S)-1d],> 40,1.3
COc1c(F)cc(-n2c([C@@H]3CCCN3)nc3cc(N4CCNCC4)c(Cl)cc3c2=O)cc1F [(S)-1e],22.8,1.6
COc1c(F)cc(-n2c([C@@H]3CCN3)nc3cc(N4CCN(C(C)C)CC4)c(Cl)cc3c2=O)cc1F [(S)-1f],> 40,0
COc1c(F)cc(-n2c([C@H]3CCCNC3)nc3cc(N4CCN(C(C)C)CC4)c(Cl)cc3c2=O)cc1F [(S)-1g],11.7,2.9
COc1c(F)cc(-n2c([C@@H]3CCCCN3)nc3cc(N4CCN(C(C)C)CC4)c(Cl)cc3c2=O)cc1F [(S)-1h],34.8,1.7
COc1c(F)cc(-n2c([C@H]3CCCNC3)nc3cc(N4CCN(C(C)(C)C)CC4)c(Cl)cc3c2=O)cc1F [(S)-1j],8.9,~3
COc1c(F)cc(-n2c([C@H]3CCCNC3)nc3cc(N4CCN(C5CCN(C)CC5)CC4)c(Cl)cc3c2=O)cc1F [(S)-1l],11.4,1.2
COc1c(F)cc(-n2c([C@H]3CCCNC3)nc3cc(N4CCN(C)CC4)c(Cl)cc3c2=O)cc1F [(S)-1m],24.8,1
COc1c(F)cc(-n2c([C@H]3CCCNC3)nc3cc(N4CCNCC4)c(Cl)cc3c2=O)cc1F [(S)-1n],13.7,0.8
COc1c(F)cc(-n2c([C@H]3CCCNC3)nc3cc(N4CCC(N5CCOCC5)CC4)c(Cl)cc3c2=O)cc1F [(S)-1o],30.1,0.3
COc1c(F)cc(-n2c([C@H]3CCCNC3)nc3cc(N4CCC(N5CCN(C)CC5)CC4)c(Cl)cc3c2=O)cc1F [(S)-1p],12.1,1.8
COc1c(F)cc(-n2c([C@H]3CCCNC3)nc3cc(N(C)CCN(C)C)c(Cl)cc3c2=O)cc1F [(S)-1q],16.3,1.2
CC(C)N1CCN(c2cc3nc([C@H]4CCCNC4)n(C)c(=O)c3cc2Cl)CC1 [(S)-1r],> 40,0.7
CC(C)N1CCN(c2cc3nc([C@H]4CCCNC4)n(-c4ccccc4)c(=O)c3cc2Cl)CC1 [(S)-1s],> 40,1
CC(C)N1CCN(c2cc3nc([C@H]4CCCNC4)n(-c4ccc(Cl)cc4)c(=O)c3cc2Cl)CC1 [(S)-1v],17.2,2
CC(C)N1CCN(c2cc3nc([C@H]4CCCNC4)n(-c4cccc(Cl)c4)c(=O)c3cc2Cl)CC1 [(S)-1w],14.8,2.6
CC(C)N1CCN(c2cc3nc([C@@H]4CCCCN4)n(-c4ccc(Cl)cc4)c(=O)c3cc2Cl)CC1 [(S)-1x],16.5,3.4
COc1c(F)cc(-n2c([C@H]3CCCN(C)C3)nc3cc(N4CCN(C(C)C)CC4)c(Cl)cc3c2=O)cc1F [(S)-1y],29.1,1.1
"COc1ccc(-n2c([C@H]3CCCN3)nc3c(C)cc([N+](=O)[O-])cc3c2=O)cc1 [BDGR-49, reference compound]",,0
